Test results reported in patent US4205086A, “Method for the treatment of gallstones” (priority 1977, dated 1980).
Like-named read-outs stand apart in the source and are kept apart here.

Columns and labels:
[1] = studies evaluating the solubility of gallstones in a variety of compounds (Example 3); settings: observed for several days
Method: Studies are conducted to evaluate the solubility of gallstones in a variety of compounds.

[2] = cited from earlier work; for tolerability by patients / toxicity: organic solvents; for solubilizing capacity for gallstones: 100-200 mM solutions
[3] = test comparing the solubility of gallstones in glycerol mono-octanoate and 200 mM sodium cholate (Example 2); set-up: species or system human (patient); settings: six days; sodium cholate 200 mM, mono-octanoate solution as in Example 1
[4] = treatment of gallstones by perfusion, general results in practice; type: in vivo, human (patient); settings: for solvency for the gallstones: in vivo; for results in treatment of gallstones: perfusion
Excerpt: In accordance with the method of the present invention a selected compound is perfused adjacent the gallstone. For the purposes herein, the term perfusion is intended to encompass the introduction of the compound in a manner that will cause the compound to pass over or around the subject gallstone, and includes equivalent terms such as infusion. The perfusion may be accomplished in accordance with normal procedures, and for example may be performed with a T-tube or an endoscope. The compound utilized by the present invention thereby contacts and gradually dissolves the gallstone. The response of the gallstone to this procedure may be followed, for example, by repeated cholangiograms.
A compound useful in accordance with the method of the present invention may also comprise a mixture of fatty acids and alcohol esters of fatty acids. Typically the fatty acid esters would be esters of the same fatty acids which exist separately in the solution, although such is not required. It is preferred that the fatty acids which exist either as themselves or in the ester form have from about 2 to about 12 carbon atoms, with from about 8 to about 10 carbon atoms being more preferred. In a most preferred embodiment of the present invention, the method comprises the perfusion of a compound having a mixture of fatty acids from about 8 to about 10 carbon atoms and alcohol esters, particularly glycerides, of fatty acids having from about 8 to about 10 carbon atoms. […].

[5] = viscosity of compounds used for perfusion (in words); type: physicochemical
Excerpt: It is also preferable that the compound not be excessively viscous at the perfusion temperature in view of the need for the compound to move through the perfusion equipment and to pass over or around the gallstone. The degree of viscosity which is tolerable, and the compounds therefore useful in the present invention, may be readily determined by experiment. […] Fatty acids useful in the present invention are generally those having short to medium carbon chain lengths, or from about 2 to about 12 carbon atoms. […]. As previously mentioned, these fatty acids which have melting points above body temperature, which is approximately 37° C., may be combined with the fatty acids which are liquid at body temperature to provide a liquid mixture having relatively low proportions of the higher fatty acids.

For CCCCCCCCCC(=O)OCCCC [butanol decanoate], the “solubility of gallstones in the compound” value [1] was “suitably soluble”.
In the case of ClC(Cl)Cl [chloroform], the tolerability by patients ([2]; prior art) is given as “poorly tolerated” and the toxicity ([2]; prior art) is given as “potentially toxic”.
In the case of CCCCCCCC(=O)OCC(COC(=O)CCCCCCC)OC(=O)CCCCCCC [glycerol tri-octanoate], the “solubility of gallstones in the compound” value [1] is reported as “suitably soluble”.
For C[C@H](CCC(=O)O)[C@H]1CC[C@H]2[C@@H]3[C@H](O)C[C@@H]4C[C@H](O)CC[C@]4(C)[C@H]3C[C@H](O)[C@]12C [sodium cholate], the “solubilizing capacity for gallstones” value ([2]; prior art) is given as “definite but low”, the bile acid diarrhea ([2]; uncontrolled studies) is given as “often with bile acid diarrhea” and the “time to disappearance of distal common bile duct stones” value ([2]; uncontrolled studies) is given as 1-4 weeks. The “change in size of stones” value [3] was “little or no apparent change”.
For CCCCCCCC(=O)OCCO [ethylene glycol mono-octanoate], the “solubility of gallstones in the compound” value [1] was “suitably soluble”.
For glycerol di-decanoate, the “solubility of gallstones in the compound” value [1] was “suitably soluble”.
For CCOCC [ether], the tolerability by patients ([2]; prior art) is listed as “poorly tolerated”, the toxicity ([2]; prior art) is listed as “potentially toxic” and the “results in dissolution of gallstones” value ([2]; prior art) is listed as “without highly favorable results”.
For CCCCCCCC(=O)OCC(O)CO (stereo not shown) [glycerol mono-octanoate], the “solubility of gallstones in the compound” value [1] was “suitably soluble”, the “solvency for the gallstones” value [4] was “high solvency” and the “results in treatment of gallstones” value [4] was “excellent results”. For the same molecule, the “results in treatment of gallstones” value ([4]; listed as mono-glyceride of octanoic acid) was “particularly excellent results”, the “tolerability and adverse symptoms or effects” value (human, in vivo) was “tolerated the procedure well and showed no adverse symptoms or effects” and the “stones on follow-up after six days of perfusion” value (perfused at 5 ml per hour, after six days, patient) was “only two very small lucencies were apparent”. The “stones on follow-up after 3 additional days of perfusion” value (perfused at 5 ml per hour, six days plus 3 additional days, patient) was “no evidence of the stones”, the “results of similar clinical trials” value (similar clinical trials at the Mayo Clinic) was “equally good results” and the viscosity [5] was “low viscosity”.
With propylene glycol mono-octanoate the “solvency for the gallstones” value [4] was “high solvency”, the “results in treatment of gallstones” value [4] was “particularly excellent results” and the viscosity [5] was “low viscosity”.
For CCCCCCCC(=O)OCC [ethanol octanoate], the “solubility of gallstones in the compound” value [1] was “suitably soluble”.
For C=C(C)[C@H]1CC=C(C)CC1 [d-limonene], the tolerability by patients ([2]; prior art) is given as “poorly tolerated”, the toxicity ([2]; prior art) is given as “potentially toxic” and the “results in dissolution of gallstones” value ([2]; prior art) is given as “without highly favorable results”.
In the case of C[C@H](CCC(=O)O)[C@H]1CC[C@H]2[C@@H]3[C@H](O)C[C@@H]4C[C@H](O)CC[C@]4(C)[C@H]3CC[C@]12C [Kenodeoxycholic acid], the “results in dissolution of gallstones” value ([2]; prior art) is listed as “more preferable, but also is relatively slow”.
For Oxycholic acid, the “solubilizing capacity for gallstones” value ([2]; prior art) is listed as “definite but low”, the bile acid diarrhea ([2]; in vivo) is listed as “often with bile acid diarrhea” and the “time to disappearance of distal common bile duct stones” value ([2]; uncontrolled studies) is listed as 1-4 weeks.
In the case of heparin, the “fragmentation or dissolution of gallstones” value ([2]; in saline solution, prior art) is listed as “function poorly”.
